Results taken from US20180235213A1, “PLANT HORMONE APPLICATION” (The State of Israel Ministry of Agriculture & Rural …, priority 2015, published 2018).

Legend:
Picual olives = test: Application of strigolactone analogs by irrigation to olive seedlings; type: in vivo, Olea europaea L.; conditions: for number of growing buds / lateral branches: irrigation to roots twice a week for 6 weeks, 0.03 and 0.3 μM, vs control
Method: The effect of application of various analogues of strigolactone (SL) on olives, given to roots by irrigation was examined. Three different SL analogs; […] The seedlings were rooted from cuttings and hardened, and were about 6 months old at the time of the experiment. Growth soil mixture was used as in the nursery. Each strigolactone analog was dissolved in acetone to give a 5.6 mM solution. This solution was then further diluted with distilled water to 0.03 and 0.3 μM. The diluted solution was injected to the roots twice a week for 6 weeks, and subsequently all the growing buds were counted. For each treatment (treated and control groups) 10 plants were measured. Experiments were repeated three times.

[1] = system: Orobanche aegyptiaca seeds; test: Orobanche Germination Assay (biological activity after stress treatments); type: in vivo
Method: The implementation of the strigolactone analogs necessitates a degree of material stability, to ensure their activity on the plant under various growth conditions. Accordingly, the stability of the strigolactone analog GR24 was tested under different environmental conditions. GR24 in acetone stock solution of 5.6 mM was diluted in double distilled water (DDW) or HPC pre-made gel to a concentration of 0.56 μM in eppendorf tubes and was subjected to the following treatments:
GR24 solutions of 0.56 μM, diluted either in DDW or in HPC pre-made gel in eppendorf tubes were incubated in a dry block heater at temperatures of 4° C., 20° C., 40° C., 60° C. digitally set for periods of 3 h, 1 d, 2 d, 4 d, 5 d and 7 d under ambient light.
GR24 solutions of 0.56 μM, diluted either in DDW or in HPC pre-made gel, each in quartz tubes (15 replicates for each treatment) were exposed to UV radiation of λ=312 nm under UV lamp of 600 or 857 μE intensity for periods of 15 min, 30 min or 18 h.
Biological activity was determined by Orobanche Germination Assay: Approximately 30 to 50 seeds of Orobanche aegyptiaca were spread on a glass fiber filter paper disk (9-mm diameter) and put into sterile petri dishes (9-cm diameter) lined with Whatman filter paper wetted with 3 mL of demineralized water. Petri dishes were sealed with parafilm and incubated at 27° C. for preconditioning. After one week of preconditioning period, the glass fiber filter paper disks with Orobanche seeds were removed from the petri dish and dried for 20 min to remove surplus moisture. The disks were transferred to another petri dish within a filter paper ring (outer diameter of 9 cm; inner diameter of 8 cm) wetted with 0.9 mL of water, which maintained a moist environment during the germination bioassay. Forty microliters of the GR24 test solutions were added to the disks. Untreated GR24 at a 0.56 μM concentration was used as a positive control, water or HPC pre-made gel as negative controls. Germination percent was calculated using the counter cell analysis of the IMAGEJ (http://www.//rsbweb.nih.gov/ij/) software. Germinated seeds were distinguished from non-germinated seeds according to the seedling radicles, which are a few millimeters long and visible under a stereomicroscope (Leica MZFLIII, Leica Microsystems, GmbH).
For each of the GR24 treatments fifteen replicates with 30-40 seeds were tested per treatment with 40 μl of 0.56 μM GR24 test solutions pre-treated as described above. The experiment was repeated three times (n=450 seeds).
Next, GR24 was stabilized with Hydroxypropyl Cellulose (HPC), which is a […] medium. Granular HPC [Sigma-Aldrich Israel Ltd., CAS-No. 9004-64-2] […]

[2] = Mass spectrometry analysis of GR24 test solutions (molecular stability); type: physicochemical
Method: Mass spectrometry (MS) analysis was performed to GR24 test solutions using the Orbitrap XL (Thermo Fisher Scientific). The samples were injected directly using direct spray injection probe, in 50% acetonitrile solution and at […] flow rate. A full scan was acquired to detect the GR24 peaks, at 60,000 resolution, Maximum ion fill time settings were 300 ms for the high resolution full scan in the Orbitrap analyzer. The spectra are sum of 10 sec acquisition. Results observed by Xcalibur© software of Thermo Fisher Scientific Inc. version 2.0.7. were analyzed manually.
Next, GR24 was stabilized with Hydroxypropyl Cellulose (HPC), which is a […] medium. Granular HPC [Sigma-Aldrich Israel Ltd., CAS-No. 9004-64-2] (1 g) was ground to a fine powder using a mortar and pestle, mixed with sterile distilled water to make about 10 mL of gel, and then allowed to stand for 1 day for complete dissolution at room temperature. Stability of GR24 was tested by both biological activity of the strigolactone and by assessing the molecule using LC-MS.

olive seedling = test: Application to olive seedling stem under greenhouse conditions (parafilm, flexible or rigid tubes); conditions: in vivo
Method: EGO10 either with PVAc, or HPC+glycerin were applied on olive seedling stem by the use of parafilm cover as the apparatus, under greenhouse conditions (FIG. 15). Greenhouse conditions include controlled room temperature of 25° C. In each experiment, 10 plants were used for each treatment. The substances were applied on the stem by a spatula and covered with parafilm.
In attempt to improve the performance of the apparatus, different substances and different cover were used. Four formulations were developed and tested. These formulations are based on polysaccharide-sorbent-humidifier substances while the main difference between them is the viscosity of the final product and the ability to retain and release of the active ingredient (EGO 10). […] The cover consisted of a flexible plastic tube that was cut (FIG. 16A), placed on the seedling stem (FIG. 16B) and wrapped with transparent plaster (FIG. 16C). The plastic tubes were filled with the experimental material (FIG. 16D). Moist cotton was placed on both sides of the tubes to minimize water evaporation (FIG. 16E and FIG. 16F). Bud outgrowth was measured for 30 days.
Rigid plastic tubes were tested in order to determine their efficiency as a delivery device for application of the hormone formulations to plants. At first, eppendorf tubes served as prototype. The tubes ware cut from top to bottom and placed on the stem of seedlings. Each tube was sealed with a small moist cotton at the bottom, filled with 1 ml of the examined material and finally covered with transparent plastic tape (FIGS. 17A-17E). The tubes were filled with (HPC+glycerin), or PVAc and EGO10 In each experiment, 10 plants were used for each treatment. Greenhouse conditions include controlled room temperature of 25° C.
EGO10 (10 μM) or acetone control together with HPC+glycerin or PVAc were applied on the stem of olive cuttings by the use of rigid plastic tubes as described in Example 10 above.
Bud outgrowth of olive cuttings was measured until day 30.

Molecule | number of growing buds / lateral branches (Picual olives) | concentration at which the effect was most prominent (Picual olives; irrigation twice a week, 0.03 and 0.3 μM tested) [µM] | biological activity (Orobanche germination) after stress ([1]; 0.56 μM, long term exposure (over 5 days) to temperatures above 40° C., acidic pH solutions, UV irradiation) | biological activity in HPC medium ([1]; GR24 in HPC pre-made gel) | structure of the molecule in HPC medium (LC-MS) ([2]; GR24 in HPC, under the examination conditions) | molecular stability (MS) ([2]; long term exposure (over 5 days) to temperatures above 40° C., acidic pH solutions, UV irradiation) | seedling outgrowth with medium plus acetone control (olive seedling)
CC1=C[C@H](O/C=C2/C(=O)O[C@@H]3c4ccccc4C[C@H]23)OC1=O (relative stereo) [GR24, (3aR*,8bS*,E)-3-(((R*)-4-methyl-5-oxo-2,5-dihydrofuran-2-yloxy)-methylene)-3,3a,4,8b-tetrahydro-2H-indeno[1,2-b]furan-2-one, reference compound] | significant reduction in number of lateral branches | 0.03 | loses biological activity | stabilized GR24 by increasing its biological activity | remained intact | molecularly degrading | –
polyvinyl acetate [PVAc] | – | – | – | – | – | – | led to inhibition of seedling outgrowth
CC1=CC(O/C=C2/C(=O)c3c(c4cc(-c5scc6c5OCCO6)ccc4n3C)C2C)OC1=O (centres unmarked) [ST362, (2E)-2-[(2,5-dihydro-4-methyl-5-oxofuran-2-yloxy)methylene]-1,2-dihydro-7-(2,3-dihydrothieno[3,4-b][1,4]dioxin-7-yl)-1,4-dimethyl-cyclopenta[b]indole-3-(4H)-one] | similar, albeit less potent effect | – | – | – | – | – | –
